One experiment deals with T1, TrkC (Homo sapiens, UniProt Q16288).
T1 construct: expressed in transfected cells; host or cells: U2OS
Put plainly: Enzyme Fragment Complementation cell-based assay, TrkC. The note with it: U2OS-cells over-expressing TrkC; ligand 10 ng/mL; 3 hours incubation. The text has this: (§1) A high throughput cell-based screen has been used to identify positive modulators of TrkA, TrkB and TrkC. The screen involves the use of cell-based assay overexpressing TrkA, TrkB or TrkC. The purpose of the assay is to identify compounds that modulate neurotrophin signalling (Forsell et al 2012). The assay can be used in inhibitor mode using a high concentration of ligand, in modulator mode using an intermediate concentration and in agonist mode using a low concentration of ligand.
(§2) The assay uses Enzyme Fragment Complementation (EFC) technique, which is a proximity-based assay. Briefly, cells used in this assay over-express two fusion proteins, i.e. the receptor, which can be either one of TrkA, TrkB, TrkC, IGF1R or FGFR1, fused to a small peptide of beta-galactosidase and an adaptor protein, i.e. SHC1 (or any other Trk-adaptor protein) fused to the major part of beta-galactosidase. […] The proximity between the small activating peptide on the receptor and the major part of beta-galactosidase on the adaptor protein leads to an active beta-galactosidase enzyme. The activation of the receptor is quantified by measuring the amount of active beta-galactosidase by its conversion of a non-luminescent substrate into a luminescent product.
(§3) U2OS-cells, over-expressing TrkA or TrkB or TrkC, are plated in 96- or 384-well plates and incubated overnight. Alternatively, cryopreserved HEK293-cells expressing IGFR1 or cryopreserved U2OS-cells expressing FGFR1 were plated in 96- or 384-well plates. On the following day, test compound was pre-mixed with ligand (NGF, BDNF, NT-3, IGF-1 or basic fibroblast growth factor (bFGF(FGF-2))) and the ligand-compound mixture is then added to the cells to yield a final ligand concentration of 10 ng/mL. After 3 hours of incubation at room temperature, the incubation is stopped by the addition of a beta-galactosidase substrate mixture containing detergents. The substrate mixture is incubated for 60 minutes at ambient temperature. The luminescence is thereafter read by the use of a plate reader.

The target of a further experiment is T2, TrkA (Homo sapiens, UniProt P04629).
T2 construct: expressed in transfected cells; host or cells: U2OS
T2 sequence (P04629 33-796): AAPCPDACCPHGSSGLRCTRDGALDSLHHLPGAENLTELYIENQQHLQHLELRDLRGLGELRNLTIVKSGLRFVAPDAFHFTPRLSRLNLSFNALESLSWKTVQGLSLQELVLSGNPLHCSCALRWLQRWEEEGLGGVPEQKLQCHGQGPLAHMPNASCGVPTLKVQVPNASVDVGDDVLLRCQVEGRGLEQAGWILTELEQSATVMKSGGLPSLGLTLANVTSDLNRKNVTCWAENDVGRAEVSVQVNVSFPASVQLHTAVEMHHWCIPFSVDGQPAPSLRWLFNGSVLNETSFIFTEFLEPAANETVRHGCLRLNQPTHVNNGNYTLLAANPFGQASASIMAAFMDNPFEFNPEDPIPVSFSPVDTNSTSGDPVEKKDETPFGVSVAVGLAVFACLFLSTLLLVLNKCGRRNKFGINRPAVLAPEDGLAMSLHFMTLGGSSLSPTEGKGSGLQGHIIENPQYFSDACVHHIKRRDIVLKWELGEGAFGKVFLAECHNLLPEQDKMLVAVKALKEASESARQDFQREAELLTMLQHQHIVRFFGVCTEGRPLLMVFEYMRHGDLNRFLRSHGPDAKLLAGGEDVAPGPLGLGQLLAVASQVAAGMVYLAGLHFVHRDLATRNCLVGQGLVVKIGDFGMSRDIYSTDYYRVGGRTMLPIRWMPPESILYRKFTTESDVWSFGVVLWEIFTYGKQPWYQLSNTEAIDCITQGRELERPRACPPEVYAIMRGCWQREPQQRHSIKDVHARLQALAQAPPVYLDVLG
Put plainly: Enzyme Fragment Complementation cell-based assay, TrkA. The note with it: U2OS-cells over-expressing TrkA; ligand 10 ng/mL; 3 hours incubation.
From the text: as §1, §2, §3

In the next experiment the target is T3, TrkB (Homo sapiens, UniProt Q16620).
T3 construct: expressed in transfected cells; host or cells: U2OS
T3 sequence (Q16620 32-822): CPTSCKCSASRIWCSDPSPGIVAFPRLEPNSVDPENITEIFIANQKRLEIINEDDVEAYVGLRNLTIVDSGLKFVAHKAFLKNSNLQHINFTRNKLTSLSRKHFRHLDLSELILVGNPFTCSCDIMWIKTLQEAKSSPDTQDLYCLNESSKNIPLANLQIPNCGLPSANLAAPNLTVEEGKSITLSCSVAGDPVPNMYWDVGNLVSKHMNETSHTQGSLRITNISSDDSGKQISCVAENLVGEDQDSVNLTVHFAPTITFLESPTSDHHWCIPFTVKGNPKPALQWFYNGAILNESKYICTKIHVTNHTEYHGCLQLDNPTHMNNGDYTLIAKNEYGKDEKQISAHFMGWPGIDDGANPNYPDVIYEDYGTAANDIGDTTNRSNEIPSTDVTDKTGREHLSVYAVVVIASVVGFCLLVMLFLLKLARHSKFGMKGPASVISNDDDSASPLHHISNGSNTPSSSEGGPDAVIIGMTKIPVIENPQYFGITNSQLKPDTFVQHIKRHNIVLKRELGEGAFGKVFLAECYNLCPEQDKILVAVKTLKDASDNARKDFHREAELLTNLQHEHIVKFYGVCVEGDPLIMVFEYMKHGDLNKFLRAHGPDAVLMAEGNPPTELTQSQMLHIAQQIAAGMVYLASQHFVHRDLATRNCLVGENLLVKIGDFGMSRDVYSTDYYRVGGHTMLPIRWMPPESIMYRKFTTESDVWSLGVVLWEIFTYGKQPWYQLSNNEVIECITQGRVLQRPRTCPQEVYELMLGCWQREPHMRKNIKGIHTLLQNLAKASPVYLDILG
Description: Enzyme Fragment Complementation cell-based assay, TrkB. The following applies: U2OS-cells over-expressing TrkB; ligand 10 ng/mL; 3 hours incubation.
From the text: as §1, §2, §3

Structures are written as SMILES.

T1 sequence (Q16288 32-839): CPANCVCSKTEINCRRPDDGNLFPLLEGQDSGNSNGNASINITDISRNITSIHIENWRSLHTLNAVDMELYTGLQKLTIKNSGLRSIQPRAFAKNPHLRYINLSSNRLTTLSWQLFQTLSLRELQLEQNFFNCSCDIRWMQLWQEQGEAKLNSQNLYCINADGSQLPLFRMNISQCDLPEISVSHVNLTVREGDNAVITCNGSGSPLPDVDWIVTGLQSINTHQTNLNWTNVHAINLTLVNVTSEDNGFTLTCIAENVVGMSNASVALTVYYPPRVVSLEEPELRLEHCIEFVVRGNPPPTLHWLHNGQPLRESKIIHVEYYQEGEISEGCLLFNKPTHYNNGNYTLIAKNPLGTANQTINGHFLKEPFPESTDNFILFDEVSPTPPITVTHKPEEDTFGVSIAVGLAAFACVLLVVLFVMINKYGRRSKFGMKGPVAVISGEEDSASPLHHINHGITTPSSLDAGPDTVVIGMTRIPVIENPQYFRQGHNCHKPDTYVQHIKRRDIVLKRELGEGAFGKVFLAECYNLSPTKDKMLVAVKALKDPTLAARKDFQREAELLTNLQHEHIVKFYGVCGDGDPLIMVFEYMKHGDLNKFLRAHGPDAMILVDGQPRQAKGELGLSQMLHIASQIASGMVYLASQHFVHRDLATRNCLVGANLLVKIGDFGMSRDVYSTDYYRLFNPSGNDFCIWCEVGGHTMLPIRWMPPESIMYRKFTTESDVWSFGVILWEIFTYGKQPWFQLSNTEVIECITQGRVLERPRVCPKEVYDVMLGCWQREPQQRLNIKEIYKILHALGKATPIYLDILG

Usually EC50 stands for the concentration at which the effect is half-maximal. As to `Cc1ccc(-n2c(=O)[nH]c(=O)n(-c3ccc(Oc4ccccc4)c(C)c3)c2=O)cc1` [Example 41, 1-(3-methyl-4-phenoxyphenyl)-3-(4-methylphenyl)-1,3,5-triazinane-2,4,6-trione], the EC50 at TrkC turned out to be 140 nM; at TrkA, 250 nM; at TrkB, 210 nM.
On to `CCOc1cc(-n2c(=O)[nH]c(=O)n(-c3ccccc3)c2=O)ccc1Oc1ccccc1` [Example 16, 1-(3-ethoxy-4-phenoxyphenyl)-3-phenyl-1,3,5-triazinane-2,4,6-trione], for which the figures for the half-maximal effective concentration (EC50) on TrkC, at TrkA and on TrkB were 510 nM, 390 nM and 370 nM, respectively.
With `Cc1cn(Cc2ccccc2)c2ccc(-n3c(=O)[nH]c(=O)n(-c4ccccc4)c3=O)cc12` [Example 36, 1-(1-Benzyl-3-methyl-1H-indol-5-yl)-3-phenyl-1,3,5-triazinane-2,4,6-trione], the EC50 was 1500 nM at TrkC, 950 nM on TrkA and 460 nM on TrkB.
With `Cc1cc(-n2c(=O)[nH]c(=O)n(-c3ccccc3)c2=O)ccc1Sc1ccccc1` [Example 34, 1-[3-methyl-4-(phenylsulfanyl)phenyl]-3-phenyl-1,3,5-triazinane-2,4,6-trione], the results for the EC50 at TrkC, at TrkA and at TrkB were 1200 nM, 1600 nM and 2000 nM, respectively.
Regarding `Cc1cn(-c2ccccc2)c2ccc(-n3c(=O)[nH]c(=O)n(C)c3=O)cc12` [Example 37, 1-methyl-3-(3-methyl-1-phenyl-1H-indol-5-yl)-1,3,5-triazinane-2,4,6-trione], the results for the EC50 at TrkC and at TrkA were 40 nM and 390 nM, respectively.
Consider `Cc1cc(-n2c(=O)[nH]c(=O)n(-c3cccc4occc34)c2=O)ccc1Oc1ccccc1` [Example 72, 1-(1-benzofuran-4-yl)-3-(3-methyl-4-phenoxyphenyl)-1,3,5-triazinane-2,4,6-trione], for which the figures for the EC50 at TrkA and at TrkB were 200 nM and 110 nM, respectively.
As for `Cc1cc(-n2c(=O)[nH]c(=O)n(-c3cscn3)c2=O)ccc1Oc1ccccc1` [Example 63, 1-(3-methyl-4-phenoxyphenyl)-3-(1,3-thiazol-4-yl)-1,3,5-triazinane-2,4,6-trione], the EC50 at TrkA was 2380 nM; at TrkB it was 950 nM.
Turning to `Cc1ccc(-n2c(=O)[nH]c(=O)n(-c3cnc(Oc4ccccc4)c(C)c3)c2=O)cc1` [Example 78, 1-(5-Methyl-6-phenoxypyridin-3-yl)-3-(p-tolyl)-1,3,5-triazinane-2,4,6-trione], the figures for the EC50 on TrkA and on TrkB were 3510 nM and 3830 nM, respectively.
As to `COc1ccc(-n2c(=O)[nH]c(=O)n(-c3ccc(Oc4ccccc4)cc3)c2=O)cc1` [Example 2, 1-(4-methoxyphenyl)-3-(4-phenoxyphenyl)-1,3,5-triazinane-2,4,6-trione], the 50% effective concentration (EC50) was 1400 nM at TrkA and 2400 nM at TrkB.
Consider `Cn1c(=O)[nH]c(=O)n(-c2ccc3c(cnn3-c3ccccc3)c2)c1=O` [Example 31, 1-methyl-3-(1-phenyl-1H-indazol-5-yl)-1,3,5-triazinane-2,4,6-trione], for which the EC50 on TrkA amounted to 46000 nM; at TrkB it was 69000 nM.
For the compound `Cc1cc(-n2c(=O)[nH]c(=O)n(-c3ccc4occc4c3)c2=O)ccc1Oc1ccccc1` [Example 46, 1-(1-benzofuran-5-yl)-3-(3-methyl-4-phenoxyphenyl)-1,3,5-triazinane-2,4,6-trione], the EC50 stood at 480 nM at TrkA and 240 nM at TrkB.
Regarding `COc1cc(Oc2ccccc2)c(C)cc1-n1c(=O)[nH]c(=O)n(-c2ccccc2)c1=O` [Example 13, 1-(2-methoxy-5-methyl-4-phenoxyphenyl)-3-phenyl-1,3,5-triazinane-2,4,6-trione], the EC50 came out at 620 nM on TrkA and 450 nM at TrkB.
The matching figures for `COc1cccc(-n2c(=O)[nH]c(=O)n(-c3ccc(Oc4ccccc4)c(C)c3)c2=O)c1` [Example 50, 1-(3-methoxyphenyl)-3-(3-methyl-4-phenoxyphenyl)-1,3,5-triazinane-2,4,6-trione]: 310 nM and 190 nM.
Take `CN(C)C(=O)COc1cc(-n2c(=O)[nH]c(=O)n(-c3ccccc3)c2=O)ccc1Oc1ccccc1` [Example 77, 1-{3-[2-(Dimethylamino)-2-oxoethoxy]-4-phenoxyphenyl}-3-phenyl-1,3,5-triazinane-2,4,6-trione]: the EC50 at TrkA worked out at 430 nM; on TrkB, 360 nM.
`COc1cccc(-n2c(=O)[nH]c(=O)n(-c3ccc(Oc4ccccc4)c(OC)c3)c2=O)c1` [Example 52, 1-(3-methoxy-4-phenoxyphenyl)-3-(3-methoxyphenyl)-1,3,5-triazinane-2,4,6-trione]: the figures for the EC50 on TrkA and on TrkB were 380 nM and 410 nM, respectively.
With `Cc1ccccc1Oc1ccc(-n2c(=O)[nH]c(=O)n(-c3ccccc3)c2=O)cc1C` [Example 62, 1-[3-methyl-4-(2-methylphenoxy)phenyl]-3-phenyl-1,3,5-triazinane-2,4,6-trione], the EC50 at TrkA was found to be 930 nM; on TrkB it was 3180 nM.
With `Cc1cc(Oc2ccccc2)ccc1-n1c(=O)[nH]c(=O)n(-c2ccccc2)c1=O` [Example 70, 1-(2-methyl-4-phenoxyphenyl)-3-phenyl-1,3,5-triazinane-2,4,6-trione], the EC50 at TrkA worked out at 660 nM; on TrkB, 350 nM.
Consider `Cc1cc(-n2c(=O)[nH]c(=O)n(-c3cccc(OC(F)(F)F)c3)c2=O)ccc1Oc1ccccc1` [Example 44, 1-(3-methyl-4-phenoxyphenyl)-3-[3-(trifluoromethoxy)phenyl]-1,3,5-triazinane-2,4,6-trione], for which the figures for the EC50 at TrkA and at TrkB were 330 nM and 260 nM, respectively.
On to `Cc1cc(-n2c(=O)[nH]c(=O)n(C)c2=O)ccc1Oc1ccccc1` [Example 55, 1-methyl-3-(3-methyl-4-phenoxyphenyl)-1,3,5-triazinane-2,4,6-trione], for which the EC50 on TrkA turned out to be 390 nM; on TrkB it was 1400 nM.
As for `Cc1cc(-n2c(=O)[nH]c(=O)n(-c3ccccc3)c2=O)c(C)cc1Oc1ccccc1` [Example 54, 1-(2,5-dimethyl-4-phenoxyphenyl)-3-phenyl-1,3,5-triazinane-2,4,6-trione], the EC50 on TrkA came to 440 nM; on TrkB it was 310 nM.
The matching figures for `Cc1cc(-n2c(=O)[nH]c(=O)n(-c3ccccc3)c2=O)ccc1Cc1ccccc1` [Example 42, 1-(4-benzyl-3-methylphenyl)-3-phenyl-1,3,5-triazinane-2,4,6-trione]: 190 nM and 280 nM.
In the case of `Cc1cc(-n2c(=O)[nH]c(=O)n(-c3ccc4c(c3)OCO4)c2=O)ccc1Oc1ccccc1` [Example 48, 1-(2H-1,3-benzodioxol-5-yl)-3-(3-methyl-4-phenoxyphenyl)-1,3,5-triazinane-2,4,6-trione], the results for the EC50 at TrkA and at TrkB were 500 nM and 260 nM, respectively.
With `Cc1ccc(-n2c(=O)[nH]c(=O)n(-c3ccc(Oc4ccccc4)cc3C)c2=O)cc1` [Example 71, 1-(2-methyl-4-phenoxyphenyl)-3-(4-methylphenyl)-1,3,5-triazinane-2,4,6-trione], the concentration giving a half-maximal response (EC50) stood at 1660 nM at TrkA and 610 nM at TrkB.
As to `CN(C)C(=O)Cc1cc(-n2c(=O)[nH]c(=O)n(-c3ccccc3)c2=O)ccc1Oc1ccccc1` [Example 76, 1-{3-[2-(Dimethylamino)-2-oxoethyl]-4-phenoxyphenyl}-3-phenyl-1,3,5-triazinane-2,4,6-trione], the 50% effective concentration (EC50) on TrkA stood at 33000 nM; at TrkB, 4530 nM.
In the case of `O=c1[nH]c(=O)n(-c2ccc3c(cnn3-c3ccccc3)c2)c(=O)n1-c1ccccc1` [Example 19, 1-phenyl-3-(1-phenyl-1H-indazol-5-yl)-1,3,5-triazinane-2,4,6-trione], the EC50 on TrkA amounted to 820 nM; at TrkB, 880 nM.
As for `COc1ccc(-n2c(=O)[nH]c(=O)n(-c3ccc(Oc4ccccc4)c(OC)c3)c2=O)cc1` [Example 53, 1-(3-methoxy-4-phenoxyphenyl)-3-(4-methoxyphenyl)-1,3,5-triazinane-2,4,6-trione], the concentration giving a half-maximal response (EC50) was found to be 960 nM on TrkA and 780 nM at TrkB.
The like results for `COc1c(-n2c(=O)[nH]c(=O)n(-c3ccccc3)c2=O)ccc(Oc2ccccc2)c1C` [Example 33, 1-(2-methoxy-3-methyl-4-phenoxyphenyl)-3-phenyl-1,3,5-triazinane-2,4,6-trione] were, in that order, 230 nM and 100 nM.
On to `COc1ccccc1-n1c(=O)[nH]c(=O)n(-c2ccc(Oc3ccccc3)c(C)c2)c1=O` [Example 51, 1-(2-methoxyphenyl)-3-(3-methyl-4-phenoxyphenyl)-1,3,5-triazinane-2,4,6-trione], for which the EC50 on TrkA came out at 180 nM; at TrkB, 260 nM.

Values taken from US12209071B2, “Triazine derivatives for treating diseases relating to neurotrophins” (AlzeCure Pharma AB, priority 2018, dated 2025).
